Assays:
Assay in all cases: viability relative to DMSO control (fraction); higher = less drug effect (more viable cells)
Conditions in all cases: 48 h
EPZ-6438 = compound: CCN(c1cc(-c2ccc(CN3CCOCC3)cc2)cc(C(=O)NCc2c(C)cc(C)[nH]c2=O)c1C)C1CCOCC1 [EPZ-6438]
Procedure, shortened: (§1)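 The cells were primary mononuclear tumour cells, either fresh or cryopreserved, isolated by Ficoll from blood or bone marrow or derived from processed lymph node. Each well of a 384-well plate received 4 × 10^4 cells onto compounds pre-plated at five concentrations, with one well per concentration. The medium was RPMI-1640 with penicillin/streptomycin, L-glutamine and human serum, and plates stood at 37 °C and 5% CO2 for 48 h. Viability is reported as CellTiter-Glo luminescence relative to the median of 16 inner DMSO wells.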

I-BET-762 = compound: CCNC(=O)C[C@@H]1N=C(c2ccc(Cl)cc2)c2cc(OC)ccc2-n2c(C)nnc21 [I-BET-762]
Procedure, shortened: as §1

Palbociclib = compound: CC(=O)c1c(C)c2cnc(Nc3ccc(N4CCNCC4)cn3)nc2n(C2CCCC2)c1=O [Palbociclib]
Procedure, shortened: as §1

Selinexor = compound: O=C(/C=C\n1cnc(-c2cc(C(F)(F)F)cc(C(F)(F)F)c2)n1)NNc1cnccn1 [Selinexor]
Procedure, shortened: as §1

Thalidomide = compound: O=C1CCC(N2C(=O)c3ccccc3C2=O)C(=O)N1 [Thalidomide]
Procedure, shortened: as §1

Barasertib = compound: CCN(CCCOc1ccc2c(Nc3cc(CC(=O)Nc4cccc(F)c4)[nH]n3)ncnc2c1)CCOP(=O)(O)O [Barasertib]
Procedure, shortened: as §1

Filgotinib = compound: O=C(Nc1nc2cccc(-c3ccc(CN4CCS(=O)(=O)CC4)cc3)n2n1)C1CC1 [Filgotinib]
Procedure, shortened: as §1

Navitoclax = compound: CC1(C)CCC(c2ccc(Cl)cc2)=C(CN2CCN(c3ccc(C(=O)NS(=O)(=O)c4ccc(N[C@H](CCN5CCOCC5)CSc5ccccc5)c(S(=O)(=O)C(F)(F)F)c4)cc3)CC2)C1 [Navitoclax]
Procedure, shortened: as §1

CPI-169 = compound: CCS(=O)(=O)N1CCC([C@@H](C)n2c(C)c(C(=O)NCc3c(OC)cc(C)[nH]c3=O)c3ccccc32)CC1 [CPI-169]
Procedure, shortened: as §1

[1] = compound: O=C(NO)c1cccc(C(=O)NCCc2ccccc2)c1
Procedure, shortened: as §1

[2] = compound: C[C@H](NC(=O)CCC(F)(F)F)C(=O)N[C@@H]1C(=O)N(CCO)c2ncccc2-c2ccccc21
Procedure, shortened: as §1

Venetoclax = compound: CC1(C)CCC(CN2CCN(c3ccc(C(=O)NS(=O)(=O)c4ccc(NCC5CCOCC5)c([N+](=O)[O-])c4)c(Oc4cnc5[nH]ccc5c4)c3)CC2)=C(c2ccc(Cl)cc2)C1 [Venetoclax]
Procedure, shortened: as §1

[3] = compound: CCc1ccc(/C=C2/SC(=S)NC2=O)cc1
Procedure, shortened: as §1

[4] = compound: C[C@H]1C[C@@H](n2c(Nc3ccc(OC(F)(F)F)cc3)nc3cc(CCC(=O)O)ccc32)CC(C)(C)C1
Procedure, shortened: as §1

primary AML patient cells (S079) showed a viability (EPZ-6438; 0.024 µM) of 1.02, a viability (EPZ-6438; 0.12 µM) of 0.996 and a viability (EPZ-6438; 0.6 µM) of 0.994. It also gave a viability (EPZ-6438; 3 µM) of 0.954, a viability (EPZ-6438; 15 µM) of 0.915 and a viability (I-BET-762; 0.008 µM) of 0.958. For the same test system, the viability (I-BET-762; 0.04 µM) was 0.855, the viability (I-BET-762; 0.2 µM) was 0.715 and the viability (I-BET-762; 1 µM) was 0.559. It also gave a viability (I-BET-762; 5 µM) of 0.422, a viability (Palbociclib; 0.024 µM) of 0.951 and a viability (Palbociclib; 0.12 µM) of 0.901. The viability (Palbociclib; 0.6 µM) was 0.848, the viability (Palbociclib; 3 µM) was 0.828 and the viability (Palbociclib; 15 µM) was 0.514. It also gave a viability (Selinexor; 0.008 µM) of 0.832, a viability (Selinexor; 0.04 µM) of 0.76 and a viability (Selinexor; 0.2 µM) of 0.666. For the same test system, the viability (Selinexor; 1 µM) was 0.559, the viability (Selinexor; 5 µM) was 0.503 and the viability (Thalidomide; 0.032 µM) was 0.91. For the same test system, the viability (Thalidomide; 0.16 µM) was 0.915, the viability (Thalidomide; 0.8 µM) was 0.93 and the viability (Thalidomide; 4 µM) was 0.962. For the same test system, the viability (Thalidomide; 20 µM) was 0.978, the viability (Barasertib; 0.0008 µM) was 0.868 and the viability (Barasertib; 0.004 µM) was 0.872. The viability (Barasertib; 0.02 µM) was 0.806, the viability (Barasertib; 0.1 µM) was 0.849 and the viability (Barasertib; 0.5 µM) was 0.936. For the same test system, the viability (Filgotinib; 0.024 µM) was 0.926, the viability (Filgotinib; 0.12 µM) was 0.891 and the viability (Filgotinib; 0.6 µM) was 0.908. It also gave a viability (Filgotinib; 3 µM) of 0.792, a viability (Filgotinib; 15 µM) of 0.405 and a viability (Navitoclax; 0.0032 µM) of 1. For the same test system, the viability (Navitoclax; 0.016 µM) was 0.924, the viability (Navitoclax; 0.08 µM) was 0.706 and the viability (Navitoclax; 0.4 µM) was 0.551. It also gave a viability (Navitoclax; 2 µM) of 0.482, a viability (CPI-169; 0.024 µM) of 0.941 and a viability (CPI-169; 0.12 µM) of 0.926. The viability (CPI-169; 0.6 µM) was 0.984, the viability (CPI-169; 3 µM) was 0.951 and the viability (CPI-169; 15 µM) was 0.866. The viability ([1]; 0.024 µM) was 0.944, the viability ([1]; 0.12 µM) was 0.968 and the viability ([1]; 0.6 µM) was 0.95. For the same test system, the viability ([1]; 3 µM) was 0.928, the viability ([1]; 15 µM) was 0.929 and the viability ([2]; 0.016 µM) was 1.07. The viability ([2]; 0.08 µM) was 1.03, the viability ([2]; 0.4 µM) was 1.08 and the viability ([2]; 2 µM) was 0.999. For the same test system, the viability ([2]; 10 µM) was 0.921, the viability (Venetoclax; 0.00064 µM) was 1.01 and the viability (Venetoclax; 0.0032 µM) was 0.869. For the same test system, the viability (Venetoclax; 0.016 µM) was 0.668, the viability (Venetoclax; 0.08 µM) was 0.563 and the viability (Venetoclax; 0.4 µM) was 0.541. It also gave a viability ([3]; 0.024 µM) of 0.741, a viability ([3]; 0.12 µM) of 0.817 and a viability ([3]; 0.6 µM) of 0.944. For the same test system, the viability ([3]; 3 µM) was 0.85, the viability ([3]; 15 µM) was 0.933 and the viability ([4]; 0.024 µM) was 0.905. The viability ([4]; 0.12 µM) was 0.917, the viability ([4]; 0.6 µM) was 0.923 and the viability ([4]; 3 µM) was 0.929. It also gave a viability ([4]; 15 µM) of 0.935.
Test System primary CLL patient cells (S043) has a viability (EPZ-6438; 0.024 µM) of 1.05, a viability (EPZ-6438; 0.12 µM) of 0.982 and a viability (EPZ-6438; 0.6 µM) of 0.926. For the same test system, the viability (EPZ-6438; 3 µM) was 0.963, the viability (EPZ-6438; 15 µM) was 0.899 and the viability (I-BET-762; 0.008 µM) was 0.909. The viability (I-BET-762; 0.04 µM) was 0.929, the viability (I-BET-762; 0.2 µM) was 0.947 and the viability (I-BET-762; 1 µM) was 0.884. The viability (I-BET-762; 5 µM) was 0.756, the viability (Palbociclib; 0.024 µM) was 0.981 and the viability (Palbociclib; 0.12 µM) was 0.959. For the same test system, the viability (Palbociclib; 0.6 µM) was 0.876, the viability (Palbociclib; 3 µM) was 0.722 and the viability (Palbociclib; 15 µM) was 0.421. For the same test system, the viability (Selinexor; 0.008 µM) was 0.788, the viability (Selinexor; 0.04 µM) was 0.746 and the viability (Selinexor; 0.2 µM) was 0.713. For the same test system, the viability (Selinexor; 1 µM) was 0.595, the viability (Selinexor; 5 µM) was 0.54 and the viability (Thalidomide; 0.032 µM) was 0.893. For the same test system, the viability (Thalidomide; 0.16 µM) was 0.892, the viability (Thalidomide; 0.8 µM) was 0.892 and the viability (Thalidomide; 4 µM) was 0.939. For the same test system, the viability (Thalidomide; 20 µM) was 0.945, the viability (Barasertib; 0.0008 µM) was 0.995 and the viability (Barasertib; 0.004 µM) was 0.966. It also gave a viability (Barasertib; 0.02 µM) of 0.952, a viability (Barasertib; 0.1 µM) of 0.924 and a viability (Barasertib; 0.5 µM) of 0.929. The viability (Filgotinib; 0.024 µM) was 0.911, the viability (Filgotinib; 0.12 µM) was 0.91 and the viability (Filgotinib; 0.6 µM) was 0.894. The viability (Filgotinib; 3 µM) was 0.919, the viability (Filgotinib; 15 µM) was 0.257 and the viability (Navitoclax; 0.0032 µM) was 1.05. It also gave a viability (Navitoclax; 0.016 µM) of 0.991, a viability (Navitoclax; 0.08 µM) of 0.989 and a viability (Navitoclax; 0.4 µM) of 0.85. For the same test system, the viability (Navitoclax; 2 µM) was 0.666, the viability (CPI-169; 0.024 µM) was 0.895 and the viability (CPI-169; 0.12 µM) was 0.903. The viability (CPI-169; 0.6 µM) was 0.877, the viability (CPI-169; 3 µM) was 0.915 and the viability (CPI-169; 15 µM) was 0.915. It also gave a viability ([1]; 0.024 µM) of 0.932, a viability ([1]; 0.12 µM) of 0.979 and a viability ([1]; 0.6 µM) of 0.926. The viability ([1]; 3 µM) was 0.915, the viability ([1]; 15 µM) was 0.905 and the viability ([2]; 0.016 µM) was 0.892. The viability ([2]; 0.08 µM) was 1.11, the viability ([2]; 0.4 µM) was 0.984 and the viability ([2]; 2 µM) was 1.1. The viability ([2]; 10 µM) was 0.896, the viability (Venetoclax; 0.00064 µM) was 1.04 and the viability (Venetoclax; 0.0032 µM) was 0.927. For the same test system, the viability (Venetoclax; 0.016 µM) was 0.917, the viability (Venetoclax; 0.08 µM) was 0.81 and the viability (Venetoclax; 0.4 µM) was 0.648. For the same test system, the viability ([3]; 0.024 µM) was 0.742, the viability ([3]; 0.12 µM) was 0.789 and the viability ([3]; 0.6 µM) was 0.832. It also gave a viability ([3]; 3 µM) of 0.847, a viability ([3]; 15 µM) of 0.868 and a viability ([4]; 0.024 µM) of 0.84. For the same test system, the viability ([4]; 0.12 µM) was 0.859, the viability ([4]; 0.6 µM) was 0.895 and the viability ([4]; 3 µM) was 1.08. The viability ([4]; 15 µM) was 0.803.
